Laboratory results: US6995143B2, “Macrolides with antibacterial activity” (Basilea Pharmaceutica AG, priority 2002, dated 2006)
Converted amounts (≈) assume the structure as drawn.

Legend:
Format in all cases: cell-based
[1] = system: Escherichia coli ATCC 25922; test: MIC, standard microdilution technique; settings: for MIC: ATCC25922, read-out: minimum inhibitory concentration (MIC), Strain D
Procedure, shortened: (§1)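 Following NCCLS document M7-A5, compounds are serially diluted in microtiter format against each strain, and the minimal inhibitory concentration is taken as the endpoint.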

[2] = system: Staphylococcus aureus 1086; test: MIC, standard microdilution technique; settings: for MIC: read-out: minimum inhibitory concentration (MIC), Strain B
Procedure, shortened: as §1

[3] = system: Staphylococcus aureus 745; test: MIC, standard microdilution technique; settings: for MIC: read-out: minimum inhibitory concentration (MIC), Strain C
Procedure, shortened: as §1

[4] = system: Staphylococcus aureus ATCC 29213; test: MIC, standard microdilution technique; settings: for MIC: ATCC29213, read-out: minimum inhibitory concentration (MIC), Strain A
Procedure, shortened: as §1

[5] = system: Streptococcus pneumoniae 12288; test: MIC, standard microdilution technique; settings: for MIC: read-out: minimum inhibitory concentration (MIC), Strain H
Procedure, shortened: as §1

[6] = system: Streptococcus pneumoniae SL199T; test: MIC, standard microdilution technique; settings: for MIC: read-out: minimum inhibitory concentration (MIC), Strain G
Procedure, shortened: as §1

[7] = system: Streptococcus pneumoniae l/l; test: MIC, standard microdilution technique; settings: for MIC: read-out: minimum inhibitory concentration (MIC), Strain E
Procedure, shortened: as §1

[8] = system: Streptococcus pneumoniae ¼; test: MIC, standard microdilution technique; settings: for MIC: read-out: minimum inhibitory concentration (MIC), Strain F
Procedure, shortened: as §1

[9] = system: Haemophilus influenzae 12214; test: MIC, standard agar dilution method using HTM medium; settings: for MIC: read-out: minimum inhibitory concentration (MIC), Strain K
Procedure, shortened: (§2)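 Per NCCLS standard M7-A5 (aerobic growers), activity against Haemophilus influenzae is reported as MIC.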

[10] = system: Haemophilus influenzae B1501; test: as above; settings: for MIC: read-out: minimum inhibitory concentration (MIC), Strain M
Procedure, shortened: as §2

[11] = system: Haemophilus influenzae QK12/87; test: as above; settings: for MIC: read-out: minimum inhibitory concentration (MIC), Strain I
Procedure, shortened: as §2

[12] = system: Haemophilus influenzae QK50; test: as above; settings: for MIC: read-out: minimum inhibitory concentration (MIC), Strain L
Procedure, shortened: as §2

Row | Compound | minimum inhibitory concentration (MIC), Strain D [1] [mg/L] | minimum inhibitory concentration (MIC), Strain B [2] | minimum inhibitory concentration (MIC), Strain C [3] [mg/L] | minimum inhibitory concentration (MIC), Strain A [4] | minimum inhibitory concentration (MIC), Strain H [5] [mg/L] | minimum inhibitory concentration (MIC), Strain G [6] | minimum inhibitory concentration (MIC), Strain E [7] | minimum inhibitory concentration (MIC), Strain F [8] | minimum inhibitory concentration (MIC), Strain K [9] [mg/L] | minimum inhibitory concentration (MIC), Strain M [10] [mg/L] | minimum inhibitory concentration (MIC), Strain I [11] [mg/L] | minimum inhibitory concentration (MIC), Strain L [12] [mg/L] | further results
1 | (3R or S, 3aR, 4R or S, 6R, 8R, 9R, 10R, 12S, 15R, 15aS) -3-[[3-[6-Amino-9H-purine-9-yl]propyl]thio]-15-ethyl-12-fluorooctahydro-8-methoxy-4,6,8,10,12,15a-hexamethyl-3-9-[[3,4,6-trideoxy-3-(dimethylamino)-β-D-xylo-hexopyranosyl]oxy]-2H-furo [2,3-c] oxacyclotetradecin-2,5,11,13 (3H,6H,12H)-tetrone [Example 13] | 32 | <=0.06 μg/ml | >32 | <=0.06 μg/ml | 0.25 | <=0.06 μg/ml | <=0.06 μg/ml | <=0.06 μg/ml | 2 | 2 | 2 | 2 | –
2 | CC[C@H]1OC(=O)[C@H](C)C(=O)[C@H](C)[C@@H](O[C@@H]2O[C@H](C)C[C@H](N(C)C)[C@H]2O)[C@](C)(OC)C[C@@H](C)C(=O)[C@H](C)[C@H]2[C@@H](SCC(=O)Nc3ccc4ccccc4n3)C(=O)O[C@@]21C [Example 37] | >32 | <=0.06 μg/ml | >32 | 0.125 mg/L (≈ 0.151 µM) | >32 | >32 mg/L | <=0.06 μg/ml | 4 mg/L (≈ 4.83 µM) | 16 (≈ 19.3 µM) | 8 (≈ 9.66 µM) | 8 (≈ 9.66 µM) | 8 (≈ 9.66 µM) | –
3 | CC[C@H]1OC(=O)[C@H](C)C(=O)[C@H](C)[C@@H](O[C@@H]2O[C@H](C)C[C@H](N(C)C)[C@H]2O)[C@](C)(OC)C[C@@H](C)C(=O)[C@H](C)[C@H]2[C@@H](SCCNS(=O)(=O)c3cccc4cccnc34)C(=O)O[C@@]21C [Example 29] | >32 | <=0.06 μg/ml | >32 | <=0.06 μg/ml | >32 | 2 mg/L (≈ 2.28 µM) | <=0.06 μg/ml | >32 mg/L | 8 (≈ 9.11 µM) | 8 (≈ 9.11 µM) | 8 (≈ 9.11 µM) | 8 (≈ 9.11 µM) | –
4 | CC[C@H]1OC(=O)[C@@](C)(F)C(=O)[C@H](C)[C@@H](O[C@@H]2O[C@H](C)C[C@H](N(C)C)[C@H]2O)[C@](C)(OC)C[C@@H](C)C(=O)[C@H](C)[C@H]2[C@@H](S(=O)(=O)CCCn3cc(-c4ccccc4)cn3)C(=O)O[C@@]21C [Example 11] | >32 | <=0.06 μg/ml | >32 | 0.125 mg/L (≈ 0.142 µM) | 16 (≈ 18.2 µM) | 4 mg/L (≈ 4.56 µM) | <=0.06 μg/ml | 0.25 mg/L (≈ 0.285 µM) | 8 (≈ 9.11 µM) | 4 (≈ 4.56 µM) | 8 (≈ 9.11 µM) | 4 (≈ 4.56 µM) | –
5 | CC[C@H]1OC(=O)[C@H](C)C(=O)[C@H](C)[C@@H](O[C@@H]2O[C@H](C)C[C@H](N(C)C)[C@H]2O)[C@](C)(OC)C[C@@H](C)C(=O)[C@H](C)[C@H]2[C@@H](SCCS(=O)(=O)NCc3ccccc3)C(=O)O[C@@]21C [Example 24] | >32 | 1 mg/L (≈ 1.19 µM) | >32 | 2 mg/L (≈ 2.38 µM) | >32 | 32 mg/L (≈ 38 µM) | <=0.06 μg/ml | >32 mg/L | >32 | 32 (≈ 38 µM) | 32 (≈ 38 µM) | >32 | –
6 | CC[C@H]1OC(=O)[C@H](C)[C@@H](O[C@H]2C[C@@](C)(OC)[C@@H](O)[C@H](C)O2)[C@H](C)[C@@H](O[C@@H]2O[C@H](C)C[C@H](N(C)C)[C@H]2O)[C@](C)(OC)C[C@@H](C)C(=O)[C@H](C)[C@@H](O)[C@]1(C)O [Clarithromycin, reference compound] | – | – | – | – | – | – | – | – | – | – | – | – | MIC [1]: > 32 mg/L; MIC [2]: > 32 mg/L; MIC [3]: > 32 mg/L; MIC [4]: 0.125 mg/L (≈ 0.167 µM); MIC [5]: > 32 mg/L; MIC [6]: > 32 mg/L; MIC [7]: ≤ 0.06 mg/L; MIC [8]: 32 mg/L (≈ 42.8 µM); MIC [9]: 4 mg/L (≈ 5.35 µM); MIC [10]: 4 mg/L (≈ 5.35 µM); MIC [11]: 4 mg/L (≈ 5.35 µM); MIC [12]: 8 mg/L (≈ 10.7 µM)
7 | CC[C@H]1OC(=O)[C@@](C)(F)C(=O)[C@H](C)[C@@H](O[C@@H]2O[C@H](C)C[C@H](N(C)C)[C@H]2O)[C@](C)(OC)C[C@@H](C)C(=O)[C@H](C)[C@H]2[C@@H](SCCCn3cc(-c4ccccc4)cn3)C(=O)O[C@@]21C (single isomer, unassigned) [Example 10] | >32 | 0.5 mg/L (≈ 0.591 µM) | >32 | 0.5 mg/L (≈ 0.591 µM) | 16 (≈ 18.9 µM) | 8 mg/L (≈ 9.46 µM) | 0.5 mg/L (≈ 0.591 µM) | 2 mg/L (≈ 2.36 µM) | >32 | >32 | 32 (≈ 37.8 µM) | 32 (≈ 37.8 µM) | –
8 | CC[C@H]1OC(=O)[C@H](C)C(=O)[C@H](C)[C@@H](O[C@@H]2O[C@H](C)C[C@H](N(C)C)[C@H]2O)[C@](C)(OC)C[C@@H](C)C(=O)[C@H](C)[C@H]2[C@@H](SCC(=O)N3CCc4ccccc43)C(=O)O[C@@]21C [Example 18] | >32 | 0.25 mg/L (≈ 0.311 µM) | >32 | 0.25 mg/L (≈ 0.311 µM) | >32 | 16 mg/L (≈ 19.9 µM) | <=0.06 μg/ml | 2 mg/L (≈ 2.49 µM) | 8 (≈ 9.96 µM) | 8 (≈ 9.96 µM) | 8 (≈ 9.96 µM) | 8 (≈ 9.96 µM) | –
9 | CC[C@H]1OC(=O)[C@@](C)(F)C(=O)[C@H](C)[C@@H](O[C@@H]2O[C@H](C)C[C@H](N(C)C)[C@H]2O)[C@](C)(OC)C[C@@H](C)C(=O)[C@H](C)[C@H]2[C@@H](S(=O)(=O)Cc3ccc(OC)cc3)C(=O)O[C@@]21C (single isomer, unassigned) [Example 2] | >32 | 2 mg/L (≈ 2.46 µM) | >32 | 2 mg/L (≈ 2.46 µM) | >32 | >32 mg/L | <=0.06 μg/ml | 4 mg/L (≈ 4.91 µM) | >32 | >32 | >32 | 32 (≈ 39.3 µM) | –
10 | CC[C@H]1OC(=O)[C@H](C)[C@@H](O[C@H]2C[C@@](C)(OC)[C@@H](O)[C@H](C)O2)[C@H](C)[C@@H](O[C@@H]2O[C@H](C)C[C@H](N(C)C)[C@H]2O)[C@](C)(O)C[C@@H](C)C(=O)[C@H](C)[C@@H](O)[C@]1(C)O [Erythromycin, reference compound] | – | – | – | – | – | – | – | – | – | – | – | – | MIC [1]: > 32 mg/L; MIC [2]: > 32 mg/L; MIC [3]: > 32 mg/L; MIC [4]: 0.25 mg/L (≈ 0.341 µM); MIC [5]: > 32 mg/L; MIC [6]: > 32 mg/L; MIC [7]: ≤ 0.06 mg/L; MIC [8]: > 32 mg/L; MIC [9]: 4 mg/L (≈ 5.45 µM); MIC [10]: 4 mg/L (≈ 5.45 µM); MIC [11]: 4 mg/L (≈ 5.45 µM); MIC [12]: 8 mg/L (≈ 10.9 µM)
